# Experimental data reported in patent US10828269B2, “Reducing muscle atrophy by administering astaxanthin” (FUJI CHEMICAL INDUSTRIES CO., LTD., priority 2004, dated 2020).
# Key:
# Test in all cases: GeneChip gene expression in renal glomerulus
# Type in all cases: in vivo, mouse
# granulin = settings: probe 1438629_x_at, 0.02% in diet, 12 weeks
# Experimental: (§1) Type II diabetic female db/db mice and non-diabetic db/m were purchased from Clea Japan, Inc. Mice were bred under the conditions with a 12 hours light-dark cycle at a temperature of 21° C. to 25° C. For acclimation, mice were fed CE-2 (Clea Japan, Inc.) with free access to water for one week. The mice were divided into three groups each consisting of 8 mice (non-diabetic db/m, diabetic db/db, and astaxanthin-administered db/db) and each group was bred with feed ad libitum. Mice in astaxanthin-administered group were fed a diet in which 0.02% astaxanthin in terms of free astaxanthin was compounded with CE-2. Each group was bred for 12 weeks, and body weight, blood glucose levels, 8-OHdG levels in urine, albumin levels in urine, and kidney histopathology, were measured. Astaxanthin used here was AstaReal (registered trademark, Fuji Chemical Industry Co., Ltd.) 50F, which is oil composed of astaxanthin fatty acid ester and triglycerides and contains 5% astaxanthin in terms of free astaxanthin.
# (§2) After the period of test breeding, kidney was removed and frozen at −80° C. Using an LM200 system (Olympus Corporation), the renal glomerulus was cut from kidney of mice while keeping low temperature. tRNA of renal glomerulus was extracted using tRNA extraction regent “Isogen” (produced by Nippon Gene Co., Ltd.), and then preparation of cRNA and hybridization were performed according to the Affymetrix GeneChip Eukaryotic Small Sample Target Labeling Assay Ver. II.
# (§3) (1) Synthesis of first strand cDNA: 1 μL of total RNA solution and 1 of 5 μM T7-Oligo(dT) primer were mixed, heated at 70° C. for 6 minutes, and then cooled at 4° C. for 2 minutes. 3 μL of RT_Premix_1 (1.5 μL DEPC-treated water, 4 μL 5× First strand Buffer, 2 μL DTT (0.1 M), 1.5 μL dNTP Mix (10 mM), 1 μL RNase inhibitor (40 U/μL), and 2 μL Super-Script II (200 U/μL)) was added and reverse transcribed at 42° C. for 1 hour. The sample was heated at 70° C. for 10 minutes to inactivate Super Script II, and then cooled to 4° C. (2) Synthesis of second strand cDNA: 32.5 μl of SS_Premix_1 (91 μL DEPC-treated water, 30 μL 5× Second Strand Buffer, 3 μL dNTP (10 mM), 1 μL E. coli DNA ligase (10 U/μL); 4 μL E. coli DNA polymerase (10 U/μL), and 1 μL RNase H (2 U/μL)) was added to the first strand cDNA solution and allowed to react for 2 hours at 16° C. (3) To the resulting cDNA, was added 1 μL T4 DNA polymerase (5 U/μl) and allowed to react for 10 minutes at 16° C., and purified by ethanol precipitation. (4) In vitro transcription: To the dried double-stranded cDNA pellet, was added 10 μL of reagents (4 μL DEPC-treated water, 4 μL premixed NTPs, 1 μL 10× reaction buffer, and 1 μL 10× enzyme mix), and allowed to react at 37° C. in a water bath for 6 hours. (5) First cycle cRNA was purified using the RNeasy Mini Kit in accordance with the protocol in the handbook (QIAGEN). (6) Subsequently, for the amplification and labeling, the cRNA sample was mixed with random primers (0.2 μg/μL), treated at 70° C. for 10 minutes, cooled on ice for 2 minutes, 5 μL of RT_Premix_2 (5× First Strand Buffer, DTT (0.1 M), dNTP mix (10 mM), RNase inhibitor (40 U/μL), and SuperScript II (200 U/μL) was added, and allowed to react at 42° C. for 1 hour. (7) Next, Second Sstrand cDNA synthesis was carried out by adding 5 μM T7-Oligo(dT) promoter treating at 70° C. for 6 minutes, cooling at 4° C., and adding 62 μL of SS_Premix_2 (43 μL it DEPC-treated water, 15 μL 5× Second Strand Buffer, 1.5 μL dNTP mix (10 mM), and 2 μL E. coli DNA polymerase (10 U/μL)). (8) To the resulting cDNA, was treated added 1 μL of T4 DNA polymerase (5 U/μL), allowed to react at 16° C. for 10 minutes, and purified by ethanol precipitation. […]
# septin 7 = settings: probe 1454610_at, 0.02% in diet, 12 weeks
# Experimental: as §1, §2, §3
# [1] = tested on: isocitrate dehydrogenase 1 (NADP+), soluble; settings: probe 1419821_s_at, 0.02% in diet, 12 weeks
# Experimental: as §1, §2, §3
# peroxiredoxin 1 = settings: probe 1436691_x_at, 0.02% in diet, 12 weeks
# Experimental: as §1, §2, §3
# fibrosin 1 = settings: probe 1433816_at, 0.02% in diet, 12 weeks
# Experimental: as §1, §2, §3
# catalase = settings: probe 1416430_at, 0.02% in diet, 12 weeks
# Experimental: as §1, §2, §3
# catenin beta = settings: probe 1420811_a_at, 0.02% in diet, 12 weeks
# Experimental: as §1, §2, §3
# [2] = tested on: Blymphoma Mo-MLV insertion region 1; settings: probe 1448733_at, 0.02% in diet, 12 weeks
# Experimental: as §1, §2, §3
# ring finger protein 128 = settings: probe 1449036_at, 0.02% in diet, 12 weeks
# Experimental: as §1, §2, §3
# [3] = tested on: transforming growth factor beta 1 induced transcript 4; settings: 0.02% in diet, 12 weeks
# Experimental: as §1, §2, §3
compound,measurement,setting,value
"CC1=C(/C=C/C(C)=C/C=C/C(C)=C/C=C/C=C(C)/C=C/C=C(C)/C=C/C2=C(C)C(=O)C(O)CC2(C)C)C(C)(C)CC(O)C1=O (stereo not drawn) [astaxanthin, 3,3′-dihydroxy-β,β-carotene-4,4′-dione]",gene expression relative ratio db/db(Ax):db/db,granulin,0.19
same,gene expression relative ratio db/db(Ax):db/m,granulin,3.03
same,gene expression relative ratio db/db(Ax):db/db,septin 7,0.76
same,gene expression relative ratio db/db(Ax):db/m,septin 7,36.76
same,gene expression relative ratio db/db(Ax):db/db,[1],0.33
same,gene expression relative ratio db/db(Ax):db/m,[1],6.96
same,gene expression relative ratio db/db(Ax):db/db,peroxiredoxin 1,0.14
same,gene expression relative ratio db/db(Ax):db/m,peroxiredoxin 1,9.19
same,gene expression relative ratio db/db(Ax):db/db,fibrosin 1,0.31
same,gene expression relative ratio db/db(Ax):db/m,fibrosin 1,8
same,gene expression relative ratio db/db(Ax):db/db,catalase,0.33
same,gene expression relative ratio db/db(Ax):db/m,catalase,8.57
same,gene expression relative ratio db/db(Ax):db/db,catenin beta,0.38
same,gene expression relative ratio db/db(Ax):db/m,catenin beta,12.13
same,gene expression relative ratio db/db(Ax):db/db,[2],0.76
same,gene expression relative ratio db/db(Ax):db/m,[2],8.00
same,gene expression relative ratio db/db(Ax):db/db,ring finger protein 128,0.1
same,gene expression relative ratio db/db(Ax):db/m,ring finger protein 128,1.62
same,gene expression relative ratio db/db(Ax):db/db,[3]; probe 1425742_a_at,0.33
same,gene expression relative ratio db/db(Ax):db/m,[3]; probe 1425742_a_at,1.41
same,gene expression relative ratio db/db(Ax):db/db,[3]; probe 1454971_x_at,0.57
same,gene expression relative ratio db/db(Ax):db/m,[3]; probe 1454971_x_at,3.25
